Data published in patent US20220273807A1, “CONJUGATES FOR USE IN METHODS OF TREATING CANCER” (AstraZeneca AB, priority 2018, published 2022).

Legend:
[1] = system: NCI-H1048 tumor cells; experiment: Human small cell lung cancer tumor model (NCI-H1048), single agent and combination; assay type: in vivo, C.B.-17 SCID female mice; settings: AZD2014 15 mg/kg daily (qd), oral; p<0.05
Method: Compound 1 was formulated in citrate/phosphate buffer pH 5.0 containing 4.5% w/v glucose and dosed intravenously (iv) in a volume of 5 ml/kg. AZD2014 was formulated in 0.5% hydroxypropyl methylcellulose/0.1% Tween 80 and dosed oral in a volume of 10 ml/kg 5×10^6 NCI-H1048 tumor cells were injected subcutaneously in the right flank of C.B.-17 SCID female mice in a volume of 0.1 mL containing 50% matrigel. Tumor volume (measured by caliper) was calculated using the formula: length (mm) x width (mm)^2×0.52. For efficacy studies, mice were randomized based on tumor volume and growth inhibition was assessed by comparison of the differences in tumor volume between control and treated groups. Dosing began when mean tumor volume reached approximately 124 mm^3.

[2] = system: OCI-Ly10 tumor cells; experiment: Human DLBCL xenograft model (OCI-Ly10), single agent and combination; assay type: in vivo, C.B.-17 SCID female mice; settings: single agent acalabrutinib 12.5 mg/kg bid po
Method: 5×10^6 OCI-Ly10 tumor cells were injected subcutaneously in the right flank of C.B.-17 SCID female mice in a volume of 0.1 mL containing 50% matrigel. Compound 1 was formulated in citrate/phosphate buffer pH 5.0, diluted 1 to 10 with 5% glucose containing 1% w/v Kolliphor HS15, and dosed as a weekly intravenous (iv) administration at a volume of 5 mL/kg at a dose of 103 mg/kg (30 mg/kg API). Acalabrutinib was formulated in 0.5% hydroxypropyl methyl cellulose/0.2% Tween 80, and dosed twice a day (bid) as an oral (po) administration at a volume of 10 mL/kg at a dose of 12.5 mg/kg. Tumor volumes (measured by caliper), animal body weight, and tumor condition were recorded twice weekly for the duration of the study. The tumor volume was calculated using the formula: length (mm) x width (mm)^2×0.52. For efficacy studies, growth inhibition from the start of treatment was assessed by comparison of the differences in tumor volume between control and treated groups. Dosing began when mean tumor size reached approximately 166 mm3.

[3] = system: RS4; 11 cells; experiment: Efficacy in RS4:11 xenograft model; assay type: in vivo, mouse; settings: Compound A 5 mg/kg
Method: Preparation of Compound PBS formulations for dosinq RS4:11 efficacy study: The appropriate amounts of Compound 1 were weighed into a volumetric flask. 10 mL Dulbecc's Phosphate Buffered Saline (PBS) was added and formulations were then stirred until the compound dissolved entirely.
Formulation of Compound A in 30% w/v HP-β-CD
30% w/v HP-β-CD vehicle was prepared. 3 g HP-β-CD (Roquette Kleptose, parenteral grade) was weighed into a 10 mL volumetric flask and 8 mL WFI added and stirred (or sonicated) to dissolve. Once dissolved the volume was made up to 10 mL with WFI.
The appropriate amount of Compound A was weighed into a 10 mL volumetric flask. 8 mL of 30% w/v HP-β-CD vehicle was then added and the formulation stirred. 1M MSA was added dropwise until the pH was reduced to about 2. The formulation was then stirred until the compound dissolved entirely. The pH was measured and adjusted to pH 4, dropwise using 1M MSA or NaOH. […] The final pH was measured and recorded and the formulation filtered through a 0.22 uM filter prior to administration. […]
On specific day, for each treated group, calculate Inhibition value by formula: Inhibition %=(CG−TG)*100/(CG−1), in which “CG” means the geometric mean of rtv of the control group and “TG” means the Geometric Mean of Relative Tumor Volume (rtv) of the treated group. “CG” should use the corresponding control group of the treated group when calculated. […]

CNC(=O)c1cccc(-c2ccc3c(N4CCOC[C@@H]4C)nc(N4CCOC[C@@H]4C)nc3n2)c1 [AZD2014, vistusertib]
anti-tumor activity, TGI [1]: 84%

CC#CC(=O)N1CCC[C@H]1c1nc(-c2ccc(C(=O)Nc3ccccn3)cc2)c2c(N)nccn12 [acalabrutinib]
tumor growth inhibition (TGI) [2]: ~58%

CN(CCO)CC[C@H](CSc1ccccc1)Nc1ccc(S(=O)(=O)NC(=O)c2ccc(N3CCC([C@@H](O)c4ccccc4-c4ccc(Cl)cc4)CC3)cc2)cc1S(=O)(=O)C(F)(F)F [Compound A]
% Inhibition Day (47) [3]: >100%
% Regression Day(47) [3]: 90%
